Tests used:
Test in all cases: KINOMEscan competition binding
DAPK3 = DAPK3 (Homo sapiens, UniProt O43293); details: read-out: %Inh DAPK3
CDK8 = CDK8 (Homo sapiens, UniProt P49336); details: read-out: %Inh CDK8
ADCK4 = target: T1, ADCK4 (Homo sapiens, UniProt Q96D53); details: read-out: %Inh ADCK4
T1 sequence (Q96D53 1-544): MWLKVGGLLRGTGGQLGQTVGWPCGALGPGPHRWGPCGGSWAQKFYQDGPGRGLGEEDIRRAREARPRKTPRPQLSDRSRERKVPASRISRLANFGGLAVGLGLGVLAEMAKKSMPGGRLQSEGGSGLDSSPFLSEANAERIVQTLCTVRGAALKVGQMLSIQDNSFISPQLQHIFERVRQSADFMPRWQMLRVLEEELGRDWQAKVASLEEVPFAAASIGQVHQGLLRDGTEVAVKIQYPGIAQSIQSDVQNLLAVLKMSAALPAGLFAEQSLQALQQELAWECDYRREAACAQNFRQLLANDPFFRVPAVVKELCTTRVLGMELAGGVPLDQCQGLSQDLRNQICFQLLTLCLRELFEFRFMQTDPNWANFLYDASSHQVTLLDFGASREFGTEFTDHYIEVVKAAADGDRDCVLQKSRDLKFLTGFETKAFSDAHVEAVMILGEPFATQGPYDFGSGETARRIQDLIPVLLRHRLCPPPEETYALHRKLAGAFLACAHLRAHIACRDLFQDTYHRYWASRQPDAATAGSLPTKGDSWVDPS

LIMK1 = LIMK1 (Homo sapiens, UniProt P53667); details: read-out: %Inh LIMK1
EPHB4 = target: T2, EPHB4 (Homo sapiens, UniProt P54760); details: read-out: %Inh EPHB4
T2 sequence (P54760 16-987): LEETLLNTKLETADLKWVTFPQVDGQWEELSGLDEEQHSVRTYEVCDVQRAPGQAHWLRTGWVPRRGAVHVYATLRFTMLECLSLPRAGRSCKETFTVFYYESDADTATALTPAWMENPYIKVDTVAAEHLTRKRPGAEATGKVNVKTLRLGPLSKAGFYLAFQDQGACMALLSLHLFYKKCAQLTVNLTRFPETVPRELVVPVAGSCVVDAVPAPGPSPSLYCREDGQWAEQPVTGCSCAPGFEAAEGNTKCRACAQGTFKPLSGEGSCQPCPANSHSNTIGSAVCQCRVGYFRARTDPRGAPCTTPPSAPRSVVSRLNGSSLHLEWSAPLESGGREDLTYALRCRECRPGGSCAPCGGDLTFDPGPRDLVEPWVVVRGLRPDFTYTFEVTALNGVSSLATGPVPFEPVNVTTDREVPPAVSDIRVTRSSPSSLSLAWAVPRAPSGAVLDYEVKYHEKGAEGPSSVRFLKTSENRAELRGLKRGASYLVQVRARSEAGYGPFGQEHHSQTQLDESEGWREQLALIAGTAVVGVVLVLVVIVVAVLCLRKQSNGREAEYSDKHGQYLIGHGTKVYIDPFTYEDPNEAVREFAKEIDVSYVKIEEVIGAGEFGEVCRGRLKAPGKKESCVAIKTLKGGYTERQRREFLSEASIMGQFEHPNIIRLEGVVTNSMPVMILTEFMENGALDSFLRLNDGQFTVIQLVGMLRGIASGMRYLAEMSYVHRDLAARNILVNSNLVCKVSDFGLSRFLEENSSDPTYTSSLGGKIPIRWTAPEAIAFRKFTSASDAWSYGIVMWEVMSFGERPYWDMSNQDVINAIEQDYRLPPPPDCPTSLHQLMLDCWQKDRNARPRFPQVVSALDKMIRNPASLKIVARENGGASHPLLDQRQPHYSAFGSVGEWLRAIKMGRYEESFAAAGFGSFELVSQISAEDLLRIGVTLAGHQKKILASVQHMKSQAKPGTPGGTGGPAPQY

CAMKK1 = CAMKK1 (Homo sapiens, UniProt Q8N5S9); details: read-out: %Inh CAMKK1
[1] = target: JAK2(JH1domain-catalytic) (Homo sapiens, UniProt O60674); details: read-out: %Inh JAK2(JH1domain-catalytic)
FLT3 = target: T3, FLT3 (Homo sapiens, UniProt P36888); details: read-out: %Inh FLT3
T3 sequence (P36888 27-993): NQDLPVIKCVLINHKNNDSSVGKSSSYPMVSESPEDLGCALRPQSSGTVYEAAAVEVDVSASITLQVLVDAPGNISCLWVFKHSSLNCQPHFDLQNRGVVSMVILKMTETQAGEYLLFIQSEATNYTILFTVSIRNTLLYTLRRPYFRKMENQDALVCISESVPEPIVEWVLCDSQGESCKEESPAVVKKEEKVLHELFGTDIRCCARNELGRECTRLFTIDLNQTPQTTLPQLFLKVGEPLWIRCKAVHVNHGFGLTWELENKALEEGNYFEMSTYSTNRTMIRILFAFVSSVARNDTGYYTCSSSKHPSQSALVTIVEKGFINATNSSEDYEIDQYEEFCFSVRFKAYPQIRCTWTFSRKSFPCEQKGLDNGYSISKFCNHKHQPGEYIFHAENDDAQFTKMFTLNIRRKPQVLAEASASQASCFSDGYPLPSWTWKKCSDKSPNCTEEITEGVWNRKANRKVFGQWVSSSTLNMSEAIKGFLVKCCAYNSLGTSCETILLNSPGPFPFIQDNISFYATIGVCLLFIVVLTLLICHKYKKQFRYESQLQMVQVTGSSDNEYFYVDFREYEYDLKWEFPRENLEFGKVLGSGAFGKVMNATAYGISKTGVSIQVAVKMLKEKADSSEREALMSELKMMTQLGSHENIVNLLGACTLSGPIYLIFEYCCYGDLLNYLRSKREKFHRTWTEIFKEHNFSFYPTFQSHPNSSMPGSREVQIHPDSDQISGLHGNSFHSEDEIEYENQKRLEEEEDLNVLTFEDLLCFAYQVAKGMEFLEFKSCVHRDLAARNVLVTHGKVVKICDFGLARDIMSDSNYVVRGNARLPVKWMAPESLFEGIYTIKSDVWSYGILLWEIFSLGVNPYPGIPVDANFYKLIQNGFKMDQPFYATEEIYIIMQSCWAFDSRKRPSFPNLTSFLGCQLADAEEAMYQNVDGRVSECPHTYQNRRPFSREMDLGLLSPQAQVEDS

CSNK1G2 = CSNK1G2 (Homo sapiens, UniProt P78368); details: read-out: %Inh CSNK1G2
Chain of CSNK1G2 (P78368 whole entry): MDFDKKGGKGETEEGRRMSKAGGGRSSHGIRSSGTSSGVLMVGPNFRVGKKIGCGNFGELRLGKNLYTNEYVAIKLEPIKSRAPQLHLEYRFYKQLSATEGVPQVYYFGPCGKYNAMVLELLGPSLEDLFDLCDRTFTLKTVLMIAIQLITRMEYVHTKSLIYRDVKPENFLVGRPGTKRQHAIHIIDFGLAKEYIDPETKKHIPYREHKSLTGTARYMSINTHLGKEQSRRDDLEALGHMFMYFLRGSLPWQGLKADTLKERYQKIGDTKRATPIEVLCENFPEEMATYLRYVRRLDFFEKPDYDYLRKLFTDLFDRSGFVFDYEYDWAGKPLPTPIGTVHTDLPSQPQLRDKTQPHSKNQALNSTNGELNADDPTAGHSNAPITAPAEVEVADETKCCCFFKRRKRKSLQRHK

Chain of DAPK3 (O43293 whole entry): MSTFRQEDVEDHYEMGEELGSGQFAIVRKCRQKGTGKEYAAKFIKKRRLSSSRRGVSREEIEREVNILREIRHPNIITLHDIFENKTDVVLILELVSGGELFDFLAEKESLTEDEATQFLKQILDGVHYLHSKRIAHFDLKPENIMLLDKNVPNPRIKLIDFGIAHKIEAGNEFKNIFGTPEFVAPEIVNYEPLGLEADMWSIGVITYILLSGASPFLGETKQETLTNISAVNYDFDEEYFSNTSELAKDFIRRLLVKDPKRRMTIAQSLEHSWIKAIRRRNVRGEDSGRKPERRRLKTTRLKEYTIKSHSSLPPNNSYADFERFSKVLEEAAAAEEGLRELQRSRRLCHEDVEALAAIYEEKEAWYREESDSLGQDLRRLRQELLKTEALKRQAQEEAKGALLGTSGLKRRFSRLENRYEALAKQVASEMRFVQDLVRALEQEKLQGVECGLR
Chain of CDK8 (P49336 whole entry): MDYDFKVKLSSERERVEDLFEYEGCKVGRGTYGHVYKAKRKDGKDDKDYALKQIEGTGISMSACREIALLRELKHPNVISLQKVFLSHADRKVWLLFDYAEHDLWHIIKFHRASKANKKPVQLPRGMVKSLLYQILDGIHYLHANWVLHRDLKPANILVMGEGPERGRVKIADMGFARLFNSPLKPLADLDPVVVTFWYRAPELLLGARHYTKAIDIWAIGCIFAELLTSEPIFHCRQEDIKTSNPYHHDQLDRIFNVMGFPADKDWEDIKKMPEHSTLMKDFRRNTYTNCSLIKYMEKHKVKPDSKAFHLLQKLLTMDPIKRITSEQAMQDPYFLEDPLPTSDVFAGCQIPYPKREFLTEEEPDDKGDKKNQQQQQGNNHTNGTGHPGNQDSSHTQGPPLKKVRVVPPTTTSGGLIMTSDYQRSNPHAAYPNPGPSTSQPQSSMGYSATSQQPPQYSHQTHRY
Chain of LIMK1 (P53667 whole entry): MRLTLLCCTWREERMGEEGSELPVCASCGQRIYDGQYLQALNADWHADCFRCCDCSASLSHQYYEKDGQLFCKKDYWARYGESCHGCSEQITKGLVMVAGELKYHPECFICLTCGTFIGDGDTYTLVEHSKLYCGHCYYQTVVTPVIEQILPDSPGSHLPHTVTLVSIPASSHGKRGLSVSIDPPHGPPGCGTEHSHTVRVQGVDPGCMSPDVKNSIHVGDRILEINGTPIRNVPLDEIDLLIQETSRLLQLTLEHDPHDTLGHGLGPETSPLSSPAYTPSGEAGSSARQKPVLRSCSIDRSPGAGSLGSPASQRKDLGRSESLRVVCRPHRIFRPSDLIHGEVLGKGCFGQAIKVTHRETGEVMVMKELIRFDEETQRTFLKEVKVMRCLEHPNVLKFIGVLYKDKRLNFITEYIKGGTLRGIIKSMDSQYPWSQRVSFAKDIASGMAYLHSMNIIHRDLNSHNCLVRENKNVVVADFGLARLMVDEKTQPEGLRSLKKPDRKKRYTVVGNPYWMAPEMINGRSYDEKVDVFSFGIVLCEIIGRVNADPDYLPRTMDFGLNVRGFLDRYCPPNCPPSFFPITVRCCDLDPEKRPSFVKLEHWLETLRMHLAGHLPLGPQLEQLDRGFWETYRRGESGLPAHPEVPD
Chain of JAK2(JH1domain-catalytic) (O60674 840-1132 limits assumed): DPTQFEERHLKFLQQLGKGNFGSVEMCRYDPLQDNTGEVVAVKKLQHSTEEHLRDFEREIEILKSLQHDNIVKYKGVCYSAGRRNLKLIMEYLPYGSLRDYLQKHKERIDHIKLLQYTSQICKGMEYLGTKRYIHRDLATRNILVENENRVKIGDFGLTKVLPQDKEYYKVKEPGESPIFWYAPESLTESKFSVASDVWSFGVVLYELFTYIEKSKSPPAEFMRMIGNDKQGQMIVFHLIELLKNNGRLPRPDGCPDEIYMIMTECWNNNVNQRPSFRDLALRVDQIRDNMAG
Chain of CAMKK1 (Q8N5S9 whole entry): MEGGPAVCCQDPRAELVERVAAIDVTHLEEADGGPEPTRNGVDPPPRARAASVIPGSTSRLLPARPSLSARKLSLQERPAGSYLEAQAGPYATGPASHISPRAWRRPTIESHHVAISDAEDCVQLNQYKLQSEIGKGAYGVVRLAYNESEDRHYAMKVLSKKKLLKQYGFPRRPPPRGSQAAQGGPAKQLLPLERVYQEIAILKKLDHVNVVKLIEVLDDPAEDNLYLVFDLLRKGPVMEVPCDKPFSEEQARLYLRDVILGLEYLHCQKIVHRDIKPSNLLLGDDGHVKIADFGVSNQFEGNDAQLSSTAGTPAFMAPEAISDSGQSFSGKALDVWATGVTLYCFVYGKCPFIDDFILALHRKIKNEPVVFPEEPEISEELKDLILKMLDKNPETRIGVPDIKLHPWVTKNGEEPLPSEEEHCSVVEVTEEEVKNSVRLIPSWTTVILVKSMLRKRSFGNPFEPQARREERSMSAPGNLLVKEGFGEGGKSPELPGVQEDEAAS

Row | SMILES | inhibition at 1 µM (DAPK3) | inhibition at 1 µM (CDK8) | inhibition at 1 µM (ADCK4) | inhibition at 1 µM (LIMK1) | inhibition at 1 µM (EPHB4) | inhibition at 1 µM (CAMKK1) | inhibition at 1 µM [1] | inhibition at 1 µM (FLT3) | inhibition at 1 µM (CSNK1G2)
1 | Cn1cc(-c2cnc(N)c3c(-c4ccc5c(c4)CCN5C(=O)Cc4ccccc4)csc23)cn1 [UNC10225012A] | 7% | 19% | 0% | 49% | 9% | 11% | 26% | 99% | 7%
2 | CS(=O)(=O)Cc1ccc(Nc2nccc(-c3c(-c4cccc(NC(=O)C5CCCCC5)c4)nn4ncccc34)n2)cc1 [UNC10225159A] | 0% | 0% | 0% | 22% | 0% | 0% | 16% | 88% | 5%
3 | Cc1ccc(NC(=O)Nc2cccc(C(F)(F)F)c2)cc1 [UNC10225187A] | 24% | 0% | 0% | 0% | 0% | 9% | 0% | 59% | 1%
4 | COc1cccc(OC)c1C(=O)Nc1cccc(-c2nn3ccccc3c2-c2ccnc(Nc3cccc(F)c3)n2)c1 [UNC10225310A] | 0% | 0% | 0% | 31% | 8% | 4% | 3% | 49% | 17%
5 | O=c1cc(N2CCOCC2)nc2n(Cc3cccc(Cl)c3Cl)c(C3CC3)nn12 [UNC10225469A] | 6% | 0% | 0% | 9% | 3% | 3% | 6% | 10% | 5%
